Holding throughout (format): biochemical
Details in all cases: inhibit 50% of activity at 50 μM

Assay [1] addresses T1, JAK2 (Homo sapiens, UniProt O60674).
T1 construct: The kinase domain of humanJAK2 was amplified from U937mRNA; His tag (from pFastBac HTc vector; nickel chelate purification) (N); made in house; host or cells: baculovirus; virus made in Sf9, large-scale expression in High Five insect cells
The experiment in a line: JAK2 kinase domain capture-based ELISA kinase assay. As to the method:
(§1) For screening purposes, compounds were diluted in 96 well plates at a concentration of 50 μM or 20 μM. Plates were warmed at 37° C. for 30 minutes before assay.
The kinase domain of humanJAK2 was amplified from U937mRNA using the polymerase chain reaction with the following primers: […]
JAK2 PCR products were cloned into the pFastBac HTc expression vector (Gibco) via the Sal I and Not I sites. The JAK2 plasmid was then transformed into competent DH10Bac cells (Gibco), and the recombinant baculovirus produced prepared for transfection into Sf9 insect cells.
(§2) Baculovirus preparations from each of the JAK family members were infected into five litres of High Five cells (Invitrogen) grown in High Five serum free medium (Invitrogen) to a cell density of approximately 1-2×10^6 cells/ml. Cells are infected with virus at a MOI of 0.8-3.0. Cells were harvested and lysed. JAK kinase domains were purified by affinity chromatography on a Probond (Invitrogen) nickel chelate affinity column.
(§3) The biotinylated substrate biotin-EGPWLEEEEEAYGWMDF-NH2 (SEQ ID NO:9) (final concentration 5 μM) was used as substrate, and tyrosine phosphorylation was quantitated following transfer to an avidin coated ELISA plate using peroxidase-linked anti-phospho-tyrosine antibody PY20.
(§4) Inhibitors were added to the assays fifteen minutes prior to the addition of ATP. Inhibitors were added in aqueous DMSO, with DMSO concentrations never exceeding 1%.

The target of assay [2] is T2, JAK3 (Homo sapiens, UniProt P52333).
T2 construct: The kinase domain of humanJAK3 was amplified from U937mRNA; His tag (from pFastBac HTb vector; nickel chelate purification) (N); made in house; host or cells: baculovirus; virus made in Sf9, large-scale expression in High Five insect cells
The experiment in a line: JAK3 kinase domain capture-based ELISA kinase assay. As to the method:
as §1
The kinase domain of humanJAK3 was amplified from U937mRNA using the polymerase chain reaction with the following primers: […]
JAK3 PCR products were cloned into the pFastBac HTb expression vector (Gibco) via the Xho I and Kpn I sites. The JAK3 plasmid was then transformed into competent DH10Bac cells (Gibco), and the recombinant baculovirus produced prepared for transfection into Sf9 insect cells.
as §2, §3, §4

Assay [3] concerns the target T3, TYK2 (Homo sapiens, UniProt P29597).
T3 construct: The kinase domain of humanTYK2 was amplified from A549 mRNA; His tag (from pBlueBacHis2A vector; nickel chelate purification) (N); made in house; host or cells: baculovirus; virus made in Sf9, large-scale expression in High Five insect cells
T3 sequence (P29597 897-1176 limits assumed): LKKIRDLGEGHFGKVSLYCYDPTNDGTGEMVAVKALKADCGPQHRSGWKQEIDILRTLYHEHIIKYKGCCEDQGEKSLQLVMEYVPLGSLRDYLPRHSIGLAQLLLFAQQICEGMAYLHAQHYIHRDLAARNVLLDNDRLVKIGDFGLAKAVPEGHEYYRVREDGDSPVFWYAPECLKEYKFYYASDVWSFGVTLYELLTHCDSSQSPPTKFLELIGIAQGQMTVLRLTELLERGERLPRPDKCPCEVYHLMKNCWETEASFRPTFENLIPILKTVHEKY
The experiment in a line: TYK2 kinase domain capture-based ELISA kinase assay. As to the method:
as §1
The kinase domain of humanTYK2 was amplified from A549 mRNA using the polymerase chain reaction with the following primers: […]
TYK2 PCR products were cloned into pBlueBacHis2A (Invitrogen) via the EcoRI site. The recombinant TYK2 baculovirus produced was prepared for transfected into Sf9 insect cells.
as §2, §3, §4

Assay [4] addresses T4, JAK1 (Homo sapiens, UniProt P23458).
T4 construct: The kinase domain of humanJAK1 was amplified from U937mRNA; His tag (from pFastBac HTb vector; nickel chelate purification) (N); made in house; host or cells: baculovirus; virus made in Sf9, large-scale expression in High Five insect cells
The experiment in a line: JAK1 kinase domain capture-based ELISA kinase assay. The protocol:
as §1
The kinase domain of humanJAK1 was amplified from U937mRNA using the polymerase chain reaction with the following primers: […]
JAK1 PCR products were cloned into the pFastBac HTb expression vector (Gibco) via the Xho I and Kpn I sites. The JAK1 plasmid was then transformed into competent DH10Bac cells (Gibco), and the recombinant baculovirus produced prepared for transfection into Sf9 insect cells.
as §2, §3, §4

32 compounds from patent publication US20060069084A1, “Methods of inhibiting kinases” (priority 2001, published 2006) can be followed below.

The structures appear in SMILES notation.

T2 sequence (P52333 822-1111 limits assumed): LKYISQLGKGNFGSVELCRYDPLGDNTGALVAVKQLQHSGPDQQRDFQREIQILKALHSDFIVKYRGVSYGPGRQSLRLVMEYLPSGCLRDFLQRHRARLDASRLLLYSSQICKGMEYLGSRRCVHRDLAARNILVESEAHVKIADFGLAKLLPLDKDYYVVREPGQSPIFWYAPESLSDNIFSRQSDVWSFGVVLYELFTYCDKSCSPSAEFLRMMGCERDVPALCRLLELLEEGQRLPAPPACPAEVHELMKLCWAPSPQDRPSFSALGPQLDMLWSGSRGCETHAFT
T1 sequence (O60674 849-1124 limits assumed): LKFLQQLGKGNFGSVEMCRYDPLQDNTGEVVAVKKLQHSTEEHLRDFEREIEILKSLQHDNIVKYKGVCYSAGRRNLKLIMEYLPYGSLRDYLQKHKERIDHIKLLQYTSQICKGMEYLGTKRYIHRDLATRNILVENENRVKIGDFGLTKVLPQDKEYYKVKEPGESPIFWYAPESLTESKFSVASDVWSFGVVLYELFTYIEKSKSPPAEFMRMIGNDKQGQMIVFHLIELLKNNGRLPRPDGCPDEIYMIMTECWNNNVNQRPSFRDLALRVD
T4 sequence (P23458 875-1153 limits assumed): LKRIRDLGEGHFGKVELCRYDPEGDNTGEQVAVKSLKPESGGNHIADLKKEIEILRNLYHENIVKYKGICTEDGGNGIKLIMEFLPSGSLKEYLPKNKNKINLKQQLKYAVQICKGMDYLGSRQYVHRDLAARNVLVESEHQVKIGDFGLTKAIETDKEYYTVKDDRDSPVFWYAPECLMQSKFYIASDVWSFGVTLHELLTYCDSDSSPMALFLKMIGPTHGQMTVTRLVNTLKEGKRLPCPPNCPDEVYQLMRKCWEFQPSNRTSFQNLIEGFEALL

Consider `OCc1cccc(-c2cncc(NCc3ccccc3)n2)c1` [CYT20506], for which the IC50 in assay [1] (Table 3), in assay [2] (Table 3), in assay [3] (Table 3) and in assay [4] (Table 3) was less than 50 µM in each case.

For the compound `COc1cc(-c2cncc(N[C@@H](C)c3ccccc3)n2)cc(OC)c1OC` [CYT20510], the 50% inhibitory concentration (IC50) in assay [1] (Table 3), in assay [2] (Table 3), in assay [3] (Table 3) and in assay [4] (Table 3) was less than 50 µM in each case.

As to `c1ccc2c(-c3cn4ccnc4c(Nc4ccc5cn[nH]c5c4)n3)cccc2c1`, the concentration for half-maximal inhibition (IC50) in assay [1] (Table 5), in assay [2] (Table 5), in assay [3] (Table 5) and in assay [4] (Table 5) was less than 50 µM throughout.

`CC(=O)Nc1ccc(Nc2nc(-c3ccccc3F)cn3ccnc23)cc1`: the IC50 in assay [1] (Table 6), in assay [2] (Table 6), in assay [3] (Table 6) and in assay [4] (Table 6) was less than 50 µM throughout.

Consider `Cc1ccc(Nc2nc(-c3ccccc3Cl)cn3ccnc23)cc1NS(C)(=O)=O`, for which the half-inhibitory concentration (IC50) was less than 50 µM in assay [1] (Table 6), greater than 50 µM in assay [2] (Table 6), less than 50 µM in assay [3] (Table 6) and less than 50 µM in assay [4] (Table 6).

As to `c1cn2cc(-c3ccc4c(c3)OCO4)nc(NC3CC3)c2n1`, the IC50 in assay [1] (Table 6) is greater than 50 µM; in assay [2] (Table 6), greater than 50 µM; in assay [3] (Table 6) it was less than 50 µM; in assay [4] (Table 6), less than 50 µM.

On to `FC(F)C(F)(F)Oc1cccc(Nc2nc(-c3cc(C(F)(F)F)cc(C(F)(F)F)c3)cn3ccnc23)c1`, for which the IC50 in assay [1] (Table 6) was greater than 50 µM; in assay [2] (Table 6) it was greater than 50 µM; in assay [3] (Table 6), greater than 50 µM; in assay [4] (Table 6) it was less than 50 µM.

As to `COc1cncc(-c2cncc(N[C@H](CO)C(C)C)n2)c1` [CYT21507], the IC50 in assay [1] (Table 3), in assay [2] (Table 3), in assay [3] (Table 3) and in assay [4] (Table 3) was less than 50 µM throughout.

In the case of `Fc1ccc(-c2cncc(N3CCN(CCN4CCCC4)CC3)n2)cc1Cl` [CY734702], the IC50 in assay [1] (Table 3), in assay [2] (Table 3), in assay [3] (Table 3) and in assay [4] (Table 3) was less than 50 µM in each case.

As to `COc1ccc(Nc2nc(-c3ccccc3F)cn3ccnc23)cn1`, the IC50 in assay [1] (Table 6) was less than 50 µM; in assay [2] (Table 6), greater than 50 µM; in assay [3] (Table 6) it was greater than 50 µM; in assay [4] (Table 6), less than 50 µM.

As for `c1ccc(Nc2nc(-c3ccco3)cn3ccnc23)cc1`, the IC50 in assay [1] (Table 6) is less than 50 µM; in assay [2] (Table 6), greater than 50 µM; in assay [3] (Table 6), less than 50 µM; in assay [4] (Table 6), greater than 50 µM.

As to `NCc1cccc(-c2cn3ccnc3c(Nc3ccccc3)n2)c1`, the IC50 in assay [1] (Table 6) is less than 50 µM; in assay [2] (Table 6), greater than 50 µM; in assay [3] (Table 6), less than 50 µM; in assay [4] (Table 6) it was less than 50 µM.

With `O=C(O)c1ccc(-c2cn3ccnc3c(Nc3ccc4cn[nH]c4c3)n2)cc1`, the IC50 in assay [1] (Table 6) was less than 50 µM; in assay [2] (Table 6), greater than 50 µM; in assay [3] (Table 6), less than 50 µM; in assay [4] (Table 6) it was less than 50 µM.

As to `O=C(O)c1ccc(-c2cn3ccnc3c(Nc3ccc(Cl)cc3)n2)cc1`, the half-inhibitory concentration (IC50) in assay [1] (Table 6), in assay [2] (Table 6), in assay [3] (Table 6) and in assay [4] (Table 6) was less than 50 µM in each case.

With `FC(F)(F)Oc1cccc(-c2cn3ccnc3c(Nc3ccccc3)n2)c1`, the IC50 is less than 50 µM in assay [1] (Table 6), greater than 50 µM in assay [2] (Table 6), greater than 50 µM in assay [3] (Table 6) and greater than 50 µM in assay [4] (Table 6).

In the case of `CCN(CCO)c1ccc(Nc2nc(-c3ccccc3)cn3ccnc23)cc1`, the IC50 in assay [1] (Table 6), in assay [2] (Table 6), in assay [3] (Table 6) and in assay [4] (Table 6) was less than 50 µM throughout.

Turning to `COc1cc(-c2cn3ccnc3c(NCC3CC3)n2)ccc1O`, the IC50 in assay [1] (Table 6) is greater than 50 µM; in assay [2] (Table 6), greater than 50 µM; in assay [3] (Table 6), greater than 50 µM; in assay [4] (Table 6), less than 50 µM.

With `CCN(CCO)c1ccc(Nc2nc(-c3ccccc3CO)cn3ccnc23)cc1` [drawing 69], the IC50 in assay [1] (Table 5), in assay [2] (Table 5), in assay [3] (Table 5) and in assay [4] (Table 5) was less than 50 µM in each case.

Take `COc1cc(-c2cncc(Nc3ccc(C#N)cc3)n2)cc(OC)c1OC` [CYT32302]: the IC50 in assay [1] (Table 3), in assay [2] (Table 3), in assay [3] (Table 3) and in assay [4] (Table 3) was less than 50 µM throughout.

As to `COc1cc(-c2cncc(NCc3ccccc3)n2)cc(OC)c1OC` [CYT25209], the IC50 in assay [1] (Table 3), in assay [2] (Table 3), in assay [3] (Table 3) and in assay [4] (Table 3) was less than 50 µM each time.

With `C[C@@H](Nc1cncc(-c2cccc(N)c2)n1)c1ccccc1` [CYT31106], the concentration for half-maximal inhibition (IC50) in assay [1] (Table 3), in assay [2] (Table 3), in assay [3] (Table 3) and in assay [4] (Table 3) was less than 50 µM throughout.

For the compound `Fc1ccccc1-c1cn2ccnc2c(Nc2ccc(N3CCOCC3)cc2)n1`, the half-maximal inhibitory concentration (IC50) in assay [1] (Table 6) is less than 50 µM; in assay [2] (Table 6) it was greater than 50 µM; in assay [3] (Table 6), less than 50 µM; in assay [4] (Table 6), less than 50 µM.

On to `c1ccc(CN2CC[C@@H](Nc3nc(-c4ccc5c(c4)OCO5)cn4ccnc34)C2)cc1`, for which the IC50 in assay [1] (Table 6) was greater than 50 µM; in assay [2] (Table 6), greater than 50 µM; in assay [3] (Table 6), less than 50 µM; in assay [4] (Table 6) it was greater than 50 µM.

As for `COc1cc(-c2cn3ccnc3c(Nc3ccccc3)n2)cc(OC)c1OC`, the IC50 in assay [1] (Table 6) was less than 50 µM; in assay [2] (Table 6), greater than 50 µM; in assay [3] (Table 6), greater than 50 µM; in assay [4] (Table 6), less than 50 µM.

As to `O=C(NCCO)c1ccc(-c2cn3ccnc3c(Nc3ccccc3)n2)cc1`, the IC50 in assay [1] (Table 6) was less than 50 µM; in assay [2] (Table 6), greater than 50 µM; in assay [3] (Table 6) it was less than 50 µM; in assay [4] (Table 6), less than 50 µM.

Take `CN1CCN(c2nc(-c3cccnc3)cn3ccnc23)CC1`: the 50% inhibitory concentration (IC50) in assay [1] (Table 6) is greater than 50 µM; in assay [2] (Table 6), greater than 50 µM; in assay [3] (Table 6), greater than 50 µM; in assay [4] (Table 6), less than 50 µM.

Take `CCN(CCO)c1ccc(Nc2nc(-c3ccccc3Cl)cn3ccnc23)cc1`: the IC50 in assay [1] (Table 6), in assay [2] (Table 6), in assay [3] (Table 6) and in assay [4] (Table 6) was less than 50 µM throughout.

Consider `Oc1ccc(-c2cncc(N3CCN(Cc4ccccn4)CC3)n2)cc1` [CYT32602], for which the IC50 in assay [1] (Table 3), in assay [2] (Table 3), in assay [3] (Table 3) and in assay [4] (Table 3) was less than 50 µM in each case.

In the case of `OCCc1ccc(Nc2nc(-c3ccccc3F)cn3ccnc23)cc1`, the IC50 in assay [1] (Table 6), in assay [2] (Table 6), in assay [3] (Table 6) and in assay [4] (Table 6) was less than 50 µM in each case.

In the case of `CCCNc1nc(-c2cccc(N)c2)cn2ccnc12`, the IC50 is greater than 50 µM in assay [1] (Table 6), greater than 50 µM in assay [2] (Table 6), greater than 50 µM in assay [3] (Table 6) and less than 50 µM in assay [4] (Table 6).

With `c1ccc(Nc2nc(-c3ccc4c(c3)OCO4)cn3ccnc23)cc1`, the IC50 in assay [1] (Table 6) is less than 50 µM; in assay [2] (Table 6) it was greater than 50 µM; in assay [3] (Table 6), less than 50 µM; in assay [4] (Table 6) it was less than 50 µM.

Consider `c1ccc(CNc2nc(Nc3cccc4[nH]ccc34)cn3ccnc23)cc1`, for which the IC50 in assay [1] (Table 5), in assay [2] (Table 5), in assay [3] (Table 5) and in assay [4] (Table 5) was less than 50 µM throughout.
